Measured values reported in article PMC10352304 (2023).
Values belong to the molecule of their own block, whether it stands above or below them. *1 amine or outer side, *2 acyl side, *3 side chain or, on linkers, in order; H or OH if unused. Where a SMILES comes first, the peptide text is derived from it. Bridges are numbered along the chain shown (N, C = ends). Roman numbers before positions name the chains, in order. [ ]: non-standard residue; d: D form. Actinocin(9to1) = Cc1c2oc3c(C)ccc(C(=O)[*:1])c3nc-2c(C(=O)[*:2])c(N)c1=O; NMeV = CN[C@H](C(=O)O)C(C)C; Sar = CNCC(=O)O

Columns and labels:
[1] = tested on: CP (C 18nt / P 11nt) (DNA, duplex) GGTGAGTGATTGGAGGTT/AATCACTCACC; test: BIND strand displacement fluorescence; conditions: none (no metal cations); 1x TE, 37 °C; critical binder concentration scales with duplex length
[2] = tested on: CP (C 28nt / P 21nt) (DNA, duplex) ACAAGAGGTTGGTGAGTGATTGGAGGTT/AATCACTCACCAACCTCTTGT; test: BIND strand displacement fluorescence; conditions: none (no metal cations); 1x TE, 37 °C; critical binder concentration scales with duplex length
[3] = tested on: CP (DNA, duplex) AGGTTGGTGAGTGATTGGAGGTT/AATCACTCACCAACCT; test: BIND strand displacement fluorescence, McGhee-von Hippel fit; conditions: none (no metal cations), 1x TE, 37 °C, 20 nM CP, 10 nM invader I, per base
[4] = tested on: CP (DNA, duplex) AGGTTGGTGAGTGATTGGAGGTT/AATCACTCACCAACCT; test: fluorescence turn-on; conditions: 20 nM CP; site size 2.4; per base
[5] = tested on: sink probe 5'-GCGCC-3' (DNA, hairpin) CGCGCGGCAAAAAGCCGCGCG; test: competitive BIND, sink against CP; conditions: none (no metal cations); 1x TE, 37 °C; sink in up to 100-fold excess over CP
[6] = tested on: CP (DNA, duplex) AGGTTGGTGAGTGATTGGAGGTT/AATCACTCACCAACCT; test: BIND strand displacement fluorescence; conditions: none (no metal cations); 1x TE, 37 °C; 20 nM CP, 10 nM invader I
[7] = tested on: CP (25% GC) (DNA, duplex) AATTCGATTAGCAATTGGAGGTT/AATTGCTAATCGAATT; test: BIND strand displacement fluorescence, McGhee-von Hippel fit; conditions: none (no metal cations); 1x TE, 37 °C; 20 nM CP, 10 nM invader I; per base
[8] = tested on: CP (75% GC) (DNA, duplex) GGGCTACGCGATGCGCGGAGGTT/GCGCATCGCGTAGCCC; test: as above; conditions: none (no metal cations); 1x TE, 37 °C; 20 nM CP, 10 nM invader I; per base
[9] = tested on: sink probe 5'-TAAAT-3' (DNA, hairpin) CGATTTACAAAAAGTAAATCG; test: competitive BIND, sink against CP; conditions: none (no metal cations); 1x TE, 37 °C; sink in up to 100-fold excess over CP

- binding [1]: yes
- binding [2]: yes
- Kd ([3]; site size 2.6, b11 prints 7.1 nM): 7.0 nM
- Kd [4]: 9.3 nM
Structure (SMILES): CCCN(CCCN(C)C)c1cc(C=C2Sc3ccccc3N2C)c2ccccc2[n+]1-c1ccccc1

- binding [6]: no
Structure (SMILES): c1ccc(C[n+]2cccc3ccccc32)cc1

Continued, molecule first:

Structure (SMILES): CCN(CC)CCn1nc2c3c(cccc3c1=O)-c1ccccc1-2
- Kd ([3]; site size 1.3): 212 nM

Structure (SMILES): Cn1cc(NC(=O)c2cc(NC(=O)CN=C(N)N)cn2C)cc1C(=O)NCCC(=N)N
- binding [5]: no

Structure (SMILES): [Ru+2].c1cnc2c(c1)ccc1cccnc12.c1cnc2c(c1)ccc1cccnc12.c1cnc2c(c1)ccc1cccnc12
- binding [6]: weak

Structure (SMILES): Cc1c2oc3c(C)ccc(C(=O)N[C@@H]4C(=O)N[C@H](C(C)C)C(=O)N5CCC[C@H]5C(=O)N(C)CC(=O)N(C)[C@@H](C(C)C)C(=O)O[C@@H]4C)c3nc-2c(C(=O)N[C@@H]2C(=O)N[C@H](C(C)C)C(=O)N3CCC[C@H]3C(=O)N(C)CC(=O)N(C)[C@@H](C(C)C)C(=O)O[C@@H]2C)c(N)c1=O (I: T[dV]P[Sar][NMeV] / II: T[dV]P[Sar][NMeV]; ester I:1-I:C, II:1-II:C; linker I:N-II:N via Actinocin(9to1))
- Kd [7]: 983 nM
- Kd [8]: 83 nM
- binding [9]: no
